Measured values as given in US8299178B2, “Stable micelles formed with diblock copolymers of critical micelle concentration copolymer and temperature-sensitive copolymer” (National Tsing Hua University, priority 2009, dated 2012).

Experiments:
HeLa cells [1] = assay: MTT cytotoxicity test using HeLa cells; type: cell-based, human
Description: The Dox activities of free Dox and Dox-mixed micelles were determined by performing cytotoxicity tests using HeLa cells (5×10^3 cell/mL). Cells that survived after incubation were estimated by a tetrazolium dye (MTT) assay. Dox-mPEG-b-P(NnPAAm-co-VIm) micelle was used for comparison. […] The IC50 of free Dox and Dox-loaded micelles are summary in Table 3.
Introducing mPEG-b-PLA into the micelle structure not only decreases mPEG-b-P(NIPAAm-co-VIm) quantity, decreases material cytotoxicity with a positive charge (i.e. VIm), but also stabilizes the micellar structure for biomedical use.

HeLa cells [2] = assay: Internalization of Dox in HeLa cells by confocal laser scanning microscopy; type: cell-based, human; details: Dox ca. 10 μg/mL, one hour of incubation
Description: Dox accumulated in HeLa cells was localized using a Carl Zeiss LSM5 PASCAL confocal laser scanning microscopy (CLSM). The HeLa cells were seeded 1×10^5 per well on cover-slides for 24 h and were then treated with free Dox or Dox-mixed micelles. The concentration of Dox was ca. 10 μg/mL. Dox-mixed micelles were washed with PBS to remove untrapped Dox twice before use. After some time, the cells were washed twice with PBS, and then mounted on a slide with 4 wt % paraformaldehyde for CLSM observation. Fluorescence was observed by confocal microscope at 488 nm for excitation and an LP filter of 590 nm for Dox detection.
The time-dependent fluorescence intensity of Dox after Dox-mixed micelles incubated with human cervical epithelioid carcinoma (HeLa) cells was measured with free Dox (Dox-HCl) being used for comparison. […] Subsequently, the acidic endosomal compartment (ca. pH 5.5-5.0) induced Dox release due to mixed micelle dissociation by VIm protonation.

[3] = literature value; cited from earlier work

COc1cccc2c1C(=O)c1c(O)c3c(c(O)c1C2=O)C[C@@](O)(C(=O)CO)C[C@@H]3O[C@H]1C[C@H](N)[C@H](O)[C@H](C)O1 [Free Dox, doxorubicin]
Dox activity compared with the Dox-loaded micelles (HeLa cells [1]): more potent activity | localization of Dox in cells (HeLa cells [2]): accumulated in both the nucleus and the cytoplasm | pKa [3]: ~7
